Assay results from EP3692978A1, “NOVEL METHOD” (DSM IP Assets B.V., priority 2019, dated 2020).
Like-named read-outs stand apart in the source and are kept apart here. Where a SMILES comes first, the peptide text is derived from it. [ ]: non-standard residue; d: D form. The star is where a group is joined. Bz = O=C(c1ccccc1)*; NPr2 = CCCN(CCC)*

Test system: human hair follicles
Assay type: cell-based
Conditions: hair shaft elongation after 4 days versus vehicle (DMSO) control
Description: Microdissection of human hair follicles: Human scalp skin samples containing mainly anagen VI hair follicles were obtained from elective face-lift plastic surgery. Informed consent was obtained. Hair follicles were truncated below the dermis, while the remaining hair bulb was separated from the dermal/subcutaneous tissue and placed in appropriate culture medium. Before the experiment, each hair follicle underwent a stringent selection, that is operated by controlling the hair shaft elongation following 18 hrs of organ culture, as well as the general organ morphology. Only the hair follicles that grew at least 0.19 ± 0.02 mm/18 hrs were used for the experiment.
Treatment: The hair growth inhibition of Bz-Gly-His-D-Phe-Arg-D-Trp-N(Pr)2 *2MSA in the concentrations as indicated in table 2 was assessed versus control, i.e. versus a treatment with the vehicle (i.e. DMSO) alone. Evaluation of hair growth inhibition: pictures of the hair follicles in culture were taken at baseline and after 4 days and the hair shaft elongation was measured to determine the hair growth. Table 2: Results

## CCCN(CCC)C(=O)[C@@H](Cc1c[nH]c2ccccc12)NC(=O)[C@H](CCCNC(=N)N)NC(=O)[C@@H](Cc1ccccc1)NC(=O)[C@H](Cc1c[nH]cn1)NC(=O)CNC(=O)c1ccccc1 [Bz-Gly-His-D-Phe-Arg-D-Trp-N(Pr)2 *2MSA] (Bz-GH[dF]R[dW]-NPr2)
1 nM, p = 0.067 (paired t-test)
  % hair growth inhibition: 12%
100 nM, p = 0.019 (paired t-test)
  % hair growth inhibition: 29%
